In patent US20190218207A1, “3-(Pyridin-3-yl)-Acrylamide and N-(Pyridin-3-yl)-Acrylamide Derivatives and Their Use as PAK or NAMPT Modulators” (Karyopharm Therapeutics Inc., priority 2015, published 2019):
Where two headings read alike, the source gives them in different places.

Columns and labels:
MS751 cells = experiment: MTT cell proliferation assay, MS751 cells; type: cell-based, human; conditions: incubation approximately 64-72 hours, read-out: MTT Assay IC50, MS 751
Description: (§1) The MTT cell proliferation assay was used to study the cytotoxic properties of the compounds. The assay was performed according to the method described by Roche Molecular Biochemicals, with minor modifications. The assay is based on the cleavage of the tetrazolium salt, MTT, in the presence of an electron-coupling reagent. The water-insoluble formazan salt produced must be solubilized in an additional step. Cells grown in a 96-well tissue culture plate were incubated with the MTT solution for approximately 4 hours. After this incubation period, a water-insoluble formazan dye formed. After solubilization, the formazan dye was quantitated using a scanning multi-well spectrophotometer (ELISA reader). […] The cells were seeded at 5,000-10,000 cells in each well of 96-well plate in 100 μL of fresh culture medium and were allowed to attach overnight. The stock solutions of the compounds were diluted in […] cell culture medium to obtain eight concentrations of each test compound, ranging from 1 nM to 30 μM. […] All optical densities were measured at 490 nm using a Vmax Kinetic Microplate Reader (Molecular Devices). In most cases, the assay was performed in duplicate and the results were presented as a mean percent inhibition to the negative control±SE. The following formula was used to calculate the percent of inhibition: Inhibition (%)=(1-(ODo/OD))×100.
(§2) The compounds were tested against MS751, Z138 and 3T3 cells. The MS751 cell line is derived from a metastasis to lymph node of human cervix from a patient diagnosed with squameous cell carcinoma of the cervix. The Z138 cell line is a mature B-cell acute lymphoblastic leukemia cell line derived from a patient with chronic lumphocytic leukemia. 3T3 cells are standard fibroblast cells; they were originally isolated from Swiss mouse embryo tissue.

Z138 cells = experiment: MTT cell proliferation assay, Z138 cells; type: cell-based, human
Description: as §1, §2

3T3 cells = experiment: MTT cell proliferation assay, 3T3 cells; type: cell-based, mouse; conditions: 3T3 fibroblast cells, incubation approximately 64-72 hours
Description: as §1, §2

[1] = Homo sapiens, Z-138, incubation approximately 64-72 hours

| Molecule | IC50 (MS751 cells; Homo sapiens) [µM] | IC50 (Z138 cells; [1]) [µM] | IC50 (3T3 cells; Mus musculus, NIH3T3) [µM] | IC50 (MS751 cells) [µM] | IC50 (Z138 cells; incubation approximately 64-72 hours, read-out: MTT Assay IC50, Z-138) [µM] | IC50 (3T3 cells) [µM] |
| --- | --- | --- | --- | --- | --- | --- |
| Nc1ccc(/C=C/C(=O)NCc2cnc(-c3ccc(-c4ccc(C(=O)N5CC(F)(F)C5)cc4)cc3C(F)(F)F)o2)cn1 [Compound A019, (E)-3-(6-aminopyridin-3-yl)-N-((2-(4′-(3,3-difluoroazetidine-1-carbonyl)-3-(trifluoromethyl)-[1,1′-biphenyl]-4-yl)oxazol-5-yl)methyl)acrylamide] | < 1 | < 1 | 1 to 5 | – | – | – |
| Nc1ccc(/C=C/C(=O)NCc2nnc(-c3ccc(-c4ccc(C(=O)N5CCC(F)(F)CC5)cc4)cc3-c3ccc(F)cc3)o2)cn1 [Compound A010, (E)-3-(6-aminopyridin-3-yl)-N-((5-(4-(4,4-difluoropiperidine-1-carbonyl)-4″-fluoro-[1,1′:3′,1″-terphenyl]-4′-yl)-1,3,4-oxadiazol-2-yl)methyl)acrylamide] | < 1 | < 1 | > 10 | – | – | – |
| (E)-(4′-(2′-(2-(6-aminopyridin-3-yl)vinyl)-5,5′-bioxazol-2-yl)-3′-(trifluoromethyl)biphenyl-4-yl)(3,3-difluoroazetidin-1-yl)methanone [Compound A027] | – | – | – | > 10 | > 10 | > 10 |
| Nc1ccc(/C=C/C(=O)NCc2ccc(-c3ccc(-c4ccc(C(=O)N5CCC(F)(F)CC5)cc4)cc3-c3ccc(F)cc3)[nH]2)cn1 [Compound A011, (E)-3-(6-aminopyridin-3-yl)-N-((5-(4-(4,4-difluoropiperidine-1-carbonyl)-4″-fluoro-[1,1′:3′,1″-terphenyl]-4′-yl)-1H-pyrrol-2-yl)methyl)acrylamide] | 1 to 5 | < 1 | > 10 | – | – | – |
| Nc1ccc(/C=C/C(=O)NCc2ccc(-c3ccc(-c4ccc(C(=O)N5CCC(F)(F)CC5)cc4)cc3-c3cccc(Cl)c3)o2)cn1 [Compound A009, (E)-3-(6-aminopyridin-3-yl)-N-((5-(3″-chloro-4-(4,4-difluoropiperidine-1-carbonyl)-[1,1′:3′,1″-terphenyl]-4′-yl)furan-2-yl)methyl)acrylamide] | < 1 | < 1 | 1 to 5 | – | – | – |
| Nc1ccc(/C=C/C(=O)NCc2ccc(-c3ccc(-c4ccc(C(=O)N5CCC(F)(F)CC5)cn4)cc3C(F)(F)F)o2)cn1 [Compound A001, (E)-3-(6-aminopyridin-3-yl)-N-((5-(4-(5-(4,4-difluoropiperidine-1-carbonyl)pyridin-2-yl)-2-(trifluoromethyl)phenyl)furan-2-yl)methyl)acrylamide] | < 1 | < 1 | 1 to 5 | – | – | – |
| Nc1ccc(/C=C/C(=O)NCc2ccc(-c3ccc(-c4ccc(C(=O)N5CCC(F)(F)CC5)cc4)cc3-c3ccc(F)cc3)o2)cn1 [Compound A008, (E)-3-(6-aminopyridin-3-yl)-N-((5-(4-(4,4-difluoropiperidine-1-carbonyl)-4″-fluoro-[1,1′:3′,1″-terphenyl]-4′-yl)furan-2-yl)methyl)acrylamide] | < 1 | < 1 | 5 to 10 | – | – | – |
| Nc1ccc(/C=C/C(=O)NCc2ccc(-c3c(C(F)(F)F)cc(-c4ccc(C(=O)N5CC(F)(F)C5)cn4)cc3C(F)(F)F)o2)cn1 [Compound A025, (E)-3-(6-aminopyridin-3-yl)-N-((5-(4-(5-(3,3-difluoroazetidine-1-carbonyl)pyridin-2-yl)-2,6-bis(trifluoromethyl)phenyl)furan-2-yl)methyl)acrylamide] | < 1 | < 1 | < 1 | – | – | – |
| Nc1ccc(/C=C/C(=O)NCc2cnc(-c3ccc(-c4ccc(C(=O)N5CC(F)(F)C5)cc4F)cc3C(F)(F)F)o2)cn1 [Compound A022, (E)-3-(6-aminopyridin-3-yl)-N-((2-(4′-(3,3-difluoroazetidine-1-carbonyl)-2′-fluoro-3-(trifluoromethyl)-[1,1′-biphenyl]-4-yl)oxazol-5-yl)methyl)acrylamide] | < 1 | < 1 | < 1 | – | – | – |
